Reference: article PMC4864078, “De Novo Transcriptome Analysis and Detection of Antimicrobial Peptides of the American Cockroach Periplaneta americana (Linnaeus)” (PLoS ONE, 2016)
“Also recorded” adds a separate entry of the source.

What was measured:
[1] = test system: C. albicans (ATCC 14053); type: cell-based, Candida albicans; conditions: Mueller-Hinton Broth, 2 × 10^4 CFU/mL, 18 h at 37°C, visible turbidity, complete growth inhibition
Procedure: (§1) The bacterial strains E. coli (KACC 13821, ATCC 11775) and Staphylococcus aureus (KACC 10768, ATCC 25923), and the yeast strain Candida albicans (KCTC 7121, ATCC 14053) were purchased from the Korean Agricultural Culture Collection (KACC) and Korean Collection for Type Cultures (KCTC). Both bacteria and the yeast were cultivated overnight in tryptic soy broth (TSB; Difco, USA) at 200 rpm in a 37°C shaking incubator to the stationary phase. Bacteria were cultivated for 3 h in fresh TSB medium under the same condition to the log phase. The strains were stored with 15% glycerol at −70°C until use.
(§2) In addition, antimicrobial activities of the peptides were also tested by broth microdilution assays against E. coli, S. aureus, and C. albicans. Briefly, microbes were grown overnight in Mueller-Hinton Broth (MHB) to the onset of the stationary phase with shaking at 200 rpm. The cultures were diluted in fresh MHB to a final concentration of 2 × 10^4 CFU/mL. A stock solution of each peptide was prepared to a concentration of 640 μg/mL in 0.01% acetic acid, and was then serially diluted two-fold to reach a concentration of 10 μg/mL. After 90-μL aliquots of the microbial suspension were dispensed into each well of a 96-well polypropylene microtiter plate, 10 μL of the peptide solution was added. The antimicrobial activities of the peptides were assessed by measuring the visible turbidity in each well of the plate after 18 h of incubation at 37°C. Minimum inhibitory concentrations (MICs) are expressed as a specific value that caused complete growth inhibition.

[2] = test system: E. coli; test: Radial diffusion assay; type: cell-based, Escherichia coli; conditions: diameter of growth inhibition zone after 12 h; compared with melittin; repeated three times
Procedure: as §1
(§3) The radial diffusion assay was performed to test the antimicrobial activities of peptides, as described previously with slight modifications. In brief, bacteria and yeast strains were grown to the mid-logarithmic phase in TSB at 37°C and then washed twice with 10 mM Tris-HCl (containing 5 mM glucose, pH 7.4). A total of 4 × 10^6 CFU was added to 10 mL of an underlay agarose gel [0.03% (w/v) TSB, 1% (w/v) agarose (Sigma, USA), and 0.02% (v/v) Tween 20 (Sigma, USA) in 10 mM Tris-HCl]. The underlay gel was poured into a 100-mm INTEGRID^TM Petri dish. After agarose solidification, 3-mm-diameter wells were punched and 5 μL of each peptide solution was added to each well. Buffer alone was used as a negative control. Plates were incubated at 37°C for 3 h to allow for diffusion of the peptides. The underlay gel was then covered with 10 mL of nutrient-rich agar overlay (6% TSB and 1% agarose in 10 mM Tris-HCl). […] This experiment was repeated at least 3 times and the same results were obtained.

[3] = test system: E. coli (ATCC 11775); test: Broth microdilution assay (MIC); type: cell-based, Escherichia coli; conditions: Mueller-Hinton Broth, 2 × 10^4 CFU/mL, 18 h at 37°C, visible turbidity, complete growth inhibition
Procedure: as §1, §2

[4] = test system: S. aureus (ATCC 25923); test: Broth microdilution assay (MIC); type: cell-based, Staphylococcus aureus; conditions: Mueller-Hinton Broth, 2 × 10^4 CFU/mL, 18 h at 37°C, visible turbidity, complete growth inhibition
Procedure: as §1, §2

[5] = test system: C. albicans; test: Radial diffusion assay; type: cell-based, Candida albicans; conditions: diameter of growth inhibition zone after 12 h, repeated three times
Procedure: as §1, §3

[6] = test system: Gram-negative bacteria, Gram-positive bacteria, and yeast; test: Radial diffusion assay, statement over all three microbes; type: cell-based; conditions: increased in a dose-dependent manner, cleared zone after 12 h at 37°C
Procedure: as §1, §3

[7] = test system: S. aureus; test: Radial diffusion assay; type: cell-based, Staphylococcus aureus; conditions: diameter of growth inhibition zone after 12 h; compared with melittin; repeated three times
Procedure: as §1, §3

[8] = test system: rat erythrocytes; test: Hemolytic assay; type: cell-based; conditions: 100 μg/mL, compared to melittin, 30 min at 37°C, A540
Procedure: This experiment was approved by the Institutional Animal Care and Use Committee (IACUC) of the National Academy of Agricultural Sciences (approval number: NAAS-1114). The hemolytic activity of the peptides was determined by monitoring the release of hemoglobin from rat erythrocytes at 540 nm. For the hemolytic assay, 20 μL of each peptide solution at a predetermined concentration was added to 180 μL of a 2.5% (v/v) suspension of rat erythrocytes in phosphate-buffered saline (PBS). Melittin (Sigma, USA), a hemolytic and α-helical peptide isolated from bee venom, was used as the positive control. This mixture was incubated for 30 min at 37°C, and 600 μL of PBS was then added to each tube. After 3 min of centrifugation at 10,000 ×g, the supernatant was […], and the absorbance was measured at 540 nm. Evaluations were made from the results of at least three independent experiments, each carried out in triplicate.

Sequence | Minimum Inhibitory Concentration (MIC) [1] | Antimicrobial activity in E. coli (radial diffusion assay) [2] | Minimum Inhibitory Concentration (MIC) [3] | Minimum Inhibitory Concentration (MIC) [4] | Antimicrobial activity against C. albicans (radial diffusion assay) [5] | Antimicrobial activity in radial diffusion assay [6] | Antimicrobial activity in S. aureus (radial diffusion assay) [7] | Hemolytic activity [8] | Antimicrobial activity against C. albicans (radial diffusion assay) ([5]; listed as Contig15_1337–1)
ALQICTRNMIDDRLPYVADNVRPGTFIKQQRKQKQQRHHTSGTRKRMAKG [ISGCock_Contig04_0915, synthetic peptide, AMPA stretch of a predicted novel AMP from a P. americana transcript] | >64 µg/mL | stronger antimicrobial activity than melittin | 64 µg/mL | >64 µg/mL | strong antimicrobial activity | antimicrobial activity |  |  | 
ANLLRHKVYGYCVLGPKGSSLGGIHGTWHDHHCSLIQRNPSTSTKGN [ISGCock_Contig13_3006, synthetic peptide, AMPA stretch of a predicted novel AMP from a P. americana transcript] | 64 µg/mL |  | 64 µg/mL | >64 µg/mL |  | antimicrobial activity |  |  | 
CNYISFFRKCKNSQSTMYGCHRMNKCVFSSY [ISGCock_Contig07_3736–1, synthetic peptide, first AMPA stretch of a predicted novel AMP from a P. americana transcript] | >64 µg/mL |  | >64 µg/mL | >64 µg/mL |  | antimicrobial activity |  |  | 
HLYPCKLNLKLGKVPFHFLNLNHKGKSIMVNQQTCLYYIICQTR [ISGCock_Contig13_4610–1, synthetic peptide, first AMPA stretch of a predicted novel AMP from a P. americana transcript] | >64 µg/mL | stronger antimicrobial activity than melittin | 64 µg/mL | >64 µg/mL | strong antimicrobial activity | antimicrobial activity | greater than that of melittin | relatively low compared to that of melittin | 
ISHNHLTAASITHVKNRGKYIYMHLKFRKTNVLI [ISGCock_Contig16_2060, synthetic peptide, AMPA stretch of a predicted novel AMP from a P. americana transcript] | 16 µg/mL |  | 16 µg/mL | 16 µg/mL |  | antimicrobial activity |  |  | 
KRMKLNAKKLSFCDHLNSYLNLSPTLFIHNSSKQWSHWLWHNGIRI [ISGCock_Contig15_1337–1, synthetic peptide, first AMPA stretch of a predicted novel AMP from a P. americana transcript] | 16 µg/mL |  | >64 µg/mL | >64 µg/mL | strong antimicrobial activity | antimicrobial activity | greater than that of melittin | relatively low compared to that of melittin | highest antifungal activity of the tested peptides
KRMKLNAKKLSFCDHLNSYLNLSPTLFIHNSSKQWSHWLWHNGIRI [ISGCock_Contig15_1337–2, synthetic peptide, second AMPA stretch of a predicted novel AMP from a P. americana transcript] | 64 µg/mL | stronger antimicrobial activity than melittin; also recorded: highest antimicrobial activity of the tested peptides | >64 µg/mL | >64 µg/mL | strong antimicrobial activity | antimicrobial activity | greater than that of melittin | relatively low compared to that of melittin | 
LMLCKGFLRHSYKSIHERGTKRGKLCRISRLALSSLP [ISGCock_Contig10_4736–2, synthetic peptide, second AMPA stretch of a predicted novel AMP from a P. americana transcript] | 32 µg/mL |  | 16 µg/mL | >64 µg/mL | strong antimicrobial activity | antimicrobial activity | greater than that of melittin |  | 
MKTFLRLYRSLINKVLHV [ISGCock_Contig05_0593, synthetic peptide, AMPA stretch of a predicted novel AMP from a P. americana transcript] | 4 µg/mL |  | 4 µg/mL | 16 µg/mL | strong antimicrobial activity | antimicrobial activity | greater than that of melittin; also recorded: highest antibacterial effect |  | 
RKKVWFIFHVCPKLKQRILSDTHAKNKCRLSPLLIKSTKIKNET [ISGCock_Contig16_4974, synthetic peptide, AMPA stretch of a predicted novel AMP from a P. americana transcript] | 16 µg/mL |  | 16 µg/mL | 16 µg/mL |  | antimicrobial activity |  |  | 
VVGRKHSILNCIPYLKKKKIMRLVESESIG [ISGCock_Contig12_4176, synthetic peptide, AMPA stretch of a predicted novel AMP from a P. americana transcript] | 8 µg/mL |  | 8 µg/mL | >64 µg/mL | strong antimicrobial activity | antimicrobial activity | greater than that of melittin | relatively low compared to that of melittin | 
